Experiment: xn = mol fraction of the nth substance listed
Settings: 101 kPa

CCCCCC[n+]1ccn(C)c1.F[P-](F)(F)(F)(F)F + CC(C)O
speed of sound [m/s]
Settings	x1 = 0.0011	x1 = 0.0019	x1 = 0.0024	x2 = 0	x2 = 0.0067	x2 = 0.074	x2 = 0.189	x2 = 0.3042	x2 = 0.3877	x2 = 0.5107
293.15 K	1157	–	–	–	1437	1427	1408	1388	–	–
298.15 K	1140	1141	1141	1424	1423	1413	1396	1375	–	1325
303.15 K	1122	1124	1124	1411	1410	–	1383	1363	1346	1313

CCCC[n+]1ccn(C)c1.F[P-](F)(F)(F)(F)F + CC(C)O
speed of sound [m/s]
Settings	x1 = 0.0008	x1 = 0.0011	x2 = 0	x2 = 0.0458	x2 = 0.1055	x2 = 0.1825	x2 = 0.2864
293.15 K	1156	–	1455	–	1441	1429	1409
298.15 K	1139	1140	1443	1437	1429	1417	1397
303.15 K	–	1122	1431	1425	1417	1405	1385

COS(=O)(=O)[O-].Cn1cc[n+](C)c1 + CC(C)O
speed of sound [m/s]
Settings	293.15 K	298.15 K	303.15 K
x2 = 0	1826	1813	–
x2 = 0.0498	1807	1797	1785
x2 = 0.0958	1791	1777	–
x2 = 0.2008	–	1729	1720
x2 = 0.3063	1684	1670	1662
x2 = 0.4013	1611	1605	1602
x2 = 0.4957	1525	1534	1534
x2 = 0.5945	–	1444	1459
x2 = 0.7039	1338	1352	1370
x2 = 0.8013	1269	1271	1292
x2 = 0.9019	–	1198	1207
x2 = 0.951	–	1167	1166

CCCC[n+]1ccn(C)c1.F[P-](F)(F)(F)(F)F + CCC(C)=O
speed of sound [m/s]
Settings	293.15 K	298.15 K	303.15 K
x2 = 0	1455	1443	1431
x2 = 0.0509	1449	1438	–
x2 = 0.0987	1444	1433	1419
x2 = 0.1907	1433	1421	–
x2 = 0.2915	1418	1408	1393
x2 = 0.4057	1399	1390	1374
x2 = 0.5074	1380	1369	1349
x2 = 0.5956	–	–	1322
x2 = 0.7008	–	–	1292
x2 = 0.7919	1301	1286	1260
x2 = 0.8942	1265	1248	1220
x2 = 0.9467	–	1224	1195

COS(=O)(=O)[O-].Cn1cc[n+](C)c1 + CCC(C)=O
speed of sound [m/s]
Settings	x1 = 0.0006	x1 = 0.0012	x1 = 0.0029	x2 = 0	x2 = 0.0257	x2 = 0.0716	x2 = 0.2017	x2 = 0.2926
293.15 K	1214	–	1217	1826	1819	1803	1750	1703
298.15 K	1194	1195	–	–	–	1791	1737	1689
303.15 K	–	1165	1168	1801	–	–	1724	1676

CCOC(C)=O + CCCCCCCC[n+]1ccn(C)c1.F[P-](F)(F)(F)(F)F
x1 = 1
Settings	speed of sound [m/s]
298.15 K	1141
303.15 K	1111

CC(C)O + CCCC[n+]1ccn(C)c1.F[P-](F)(F)(F)(F)F
x1 = 1
Settings	speed of sound [m/s]
293.15 K	1156
303.15 K	1121

CCC(C)=O + CCCC[n+]1ccn(C)c1.F[P-](F)(F)(F)(F)F
Settings	speed of sound [m/s]
303.15 K, x1 = 1	1163

CCOC(C)=O + CCCC[n+]1ccn(C)c1.F[P-](F)(F)(F)(F)F
Settings	speed of sound [m/s]
293.15 K, x1 = 1	1162

CCCCCCCC[n+]1ccn(C)c1.F[P-](F)(F)(F)(F)F + CCOC(C)=O
speed of sound [m/s]
Settings	293.15 K	298.15 K	303.15 K
x2 = 0	1424	1408	1393
x2 = 0.0048	–	1408	–
x2 = 0.0967	1408	1393	1379
x2 = 0.1981	1391	1377	1364
x2 = 0.2967	1375	1361	1348
x2 = 0.3954	1358	1344	1330
x2 = 0.5056	1337	1323	–
x2 = 0.6061	1315	1299	1284
x2 = 0.7059	1288	1271	1253
x2 = 0.8004	–	1236	1218
x2 = 0.9036	1209	1189	1169
x2 = 0.9453	1189	–	1147

CCCC[n+]1ccn(C)c1.F[P-](F)(F)(F)(F)F + CCOC(C)=O
speed of sound [m/s]
Settings	293.15 K	298.15 K	303.15 K
x2 = 0	1455	1443	1431
x2 = 0.0501	1447	1436	1420
x2 = 0.1003	1438	1427	–
x2 = 0.1854	1421	1412	1401
x2 = 0.3	–	1391	1378
x2 = 0.4064	1379	1366	1354
x2 = 0.5117	1350	–	–
x2 = 0.6032	1319	1310	1291
x2 = 0.7061	1280	–	–
x2 = 0.802	1240	1228	1207
x2 = 0.9021	–	1180	1160
x2 = 0.948	–	1162	1137

COS(=O)(=O)[O-].Cn1cc[n+](C)c1 + CCOC(C)=O
speed of sound [m/s]
Settings	x2 = 0	x2 = 0.0509	x2 = 0.0706	x2 = 0.0928	x2 = 0.1254	x2 = 0.1451
293.15 K	1826	1808	–	1792	1775	1765
298.15 K	1813	1795	1789	1778	1765	1752
303.15 K	1801	1782	1777	1764	1746	–

CC(C)O + COS(=O)(=O)[O-].Cn1cc[n+](C)c1
x1 = 1
Settings	speed of sound [m/s]
293.15 K	1156
303.15 K	1121

CCC(C)=O + COS(=O)(=O)[O-].Cn1cc[n+](C)c1
x1 = 1
Settings	speed of sound [m/s]
293.15 K	1212
303.15 K	1163

CCOC(C)=O + COS(=O)(=O)[O-].Cn1cc[n+](C)c1
x1 = 1
Settings	speed of sound [m/s]
293.15 K	1162
303.15 K	1111
